In EP4467141A1, “PYRAZOLO-QUINOLINES AS SELECTIVE INHIBITORS OF GENOTOXIC STRESS-INDUCED IKK/NF- KB PATHWAYS FOR CANCER THERAPY” (Max-Delbrück-Centrum für Molekulare Medizin in der …, priority 2023, dated 2024):

Tests used:
Assay in all cases: Kinase panel study
Format in all cases: biochemical
Settings in all cases: read-out: Percentage of inhibition; for inhibition at 1 µM: 1000nM; for inhibition at 10 µM: 10000nM
PLK1 = biological target: T1, PLK1 (Homo sapiens, UniProt P53350)
T1 construct: purchased Thermo Fisher Scientific
Method in brief: (§1)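 Readout is percentage kinase inhibition. Testing used 1 µM or 10 µM compound in externally run ZLyte/Adapta in vitro assays, and IC50 values were derived within the same panel.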

MET M1250T = biological target: T2, MET M1250T (Homo sapiens, UniProt P08581, M1250T)
T2 construct: purchased Thermo Fisher Scientific
Method in brief: as §1

FGFR1 = biological target: T3, FGFR1 (Homo sapiens, UniProt P11362)
T3 construct: purchased Thermo Fisher Scientific
Method in brief: as §1

AURKB (Aurora B) = biological target: T4, AURKB (Aurora B) (Homo sapiens, UniProt Q96GD4)
T4 construct: purchased Thermo Fisher Scientific
Method in brief: as §1

ABL2 (Arg) = biological target: T5, ABL2 (Arg) (Homo sapiens, UniProt P42684)
T5 construct: purchased Thermo Fisher Scientific
Method in brief: as §1

CHEK1 (CHK1) = biological target: T6, CHEK1 (CHK1) (Homo sapiens, UniProt O14757)
T6 construct: purchased Thermo Fisher Scientific
T6 sequence (O14757 1-476): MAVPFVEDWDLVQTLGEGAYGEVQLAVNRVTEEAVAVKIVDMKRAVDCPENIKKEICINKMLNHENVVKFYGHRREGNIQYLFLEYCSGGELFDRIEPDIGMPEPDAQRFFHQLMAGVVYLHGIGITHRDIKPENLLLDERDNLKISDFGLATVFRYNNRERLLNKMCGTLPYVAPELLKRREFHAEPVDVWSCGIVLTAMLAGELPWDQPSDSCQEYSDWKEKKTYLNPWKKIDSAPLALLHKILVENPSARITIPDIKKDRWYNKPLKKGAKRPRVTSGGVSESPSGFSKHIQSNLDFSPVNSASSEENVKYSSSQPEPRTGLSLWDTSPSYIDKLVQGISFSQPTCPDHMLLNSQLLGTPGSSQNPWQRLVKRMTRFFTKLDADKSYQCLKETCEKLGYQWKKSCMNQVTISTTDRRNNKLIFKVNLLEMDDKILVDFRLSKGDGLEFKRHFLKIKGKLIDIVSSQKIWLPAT
Method in brief: as §1

CDK1/cyclin B = biological target: T7, CDK1/cyclin B (Homo sapiens, UniProt P06493)
T7 construct: purchased Thermo Fisher Scientific
Method in brief: as §1

SNF1LK2 = biological target: T8, SNF1LK2 (Homo sapiens, UniProt Q9H0K1)
T8 construct: purchased Thermo Fisher Scientific
Method in brief: as §1

MAPK7 (ERK5) = biological target: T9, MAPK7 (ERK5) (Homo sapiens, UniProt Q13164)
T9 construct: purchased Thermo Fisher Scientific
Method in brief: as §1

PDGFRA (PDGFR alpha) = biological target: T10, PDGFRA (PDGFR alpha) (Homo sapiens, UniProt P16234)
T10 construct: purchased Thermo Fisher Scientific
Method in brief: as §1

HCK = biological target: T11, HCK (Homo sapiens, UniProt P08631)
T11 construct: purchased Thermo Fisher Scientific
Method in brief: as §1

EGFR (ErbB1) T790M L858R = biological target: T12, EGFR (ErbB1) T790M L858R (Homo sapiens, UniProt P00533, L858R/T790M)
T12 construct: purchased Thermo Fisher Scientific
Method in brief: as §1

NTRK3 (TRKC) = biological target: T13, NTRK3 (TRKC) (Homo sapiens, UniProt Q16288)
T13 construct: purchased Thermo Fisher Scientific
Method in brief: as §1

CDC42 BPB (MRCKB) = biological target: T14, CDC42 BPB (MRCKB) (Homo sapiens, UniProt Q9Y5S2)
T14 construct: purchased Thermo Fisher Scientific
Method in brief: as §1

T13 sequence (Q16288 32-839): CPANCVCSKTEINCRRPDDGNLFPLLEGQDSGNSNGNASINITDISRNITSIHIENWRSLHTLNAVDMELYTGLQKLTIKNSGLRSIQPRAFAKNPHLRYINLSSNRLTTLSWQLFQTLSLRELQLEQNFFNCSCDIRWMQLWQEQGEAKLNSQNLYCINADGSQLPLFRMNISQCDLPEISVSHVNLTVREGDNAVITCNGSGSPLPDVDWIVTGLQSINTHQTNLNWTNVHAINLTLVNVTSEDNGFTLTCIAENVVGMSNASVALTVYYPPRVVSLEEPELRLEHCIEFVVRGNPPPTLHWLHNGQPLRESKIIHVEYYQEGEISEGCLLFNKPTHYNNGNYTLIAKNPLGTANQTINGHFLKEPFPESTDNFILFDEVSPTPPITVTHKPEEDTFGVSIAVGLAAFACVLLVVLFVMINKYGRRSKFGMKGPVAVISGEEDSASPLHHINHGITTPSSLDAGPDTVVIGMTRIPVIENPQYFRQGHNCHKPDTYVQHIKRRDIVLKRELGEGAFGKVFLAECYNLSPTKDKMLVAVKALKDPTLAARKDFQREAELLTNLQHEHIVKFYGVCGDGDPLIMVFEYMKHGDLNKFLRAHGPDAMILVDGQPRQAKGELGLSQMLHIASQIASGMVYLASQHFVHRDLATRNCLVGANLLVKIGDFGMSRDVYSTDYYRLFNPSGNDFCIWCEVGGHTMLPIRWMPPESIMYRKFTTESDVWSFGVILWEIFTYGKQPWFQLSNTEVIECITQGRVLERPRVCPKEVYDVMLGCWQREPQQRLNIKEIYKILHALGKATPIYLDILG
T12 sequence (P00533 25-1210 T790M/L858R): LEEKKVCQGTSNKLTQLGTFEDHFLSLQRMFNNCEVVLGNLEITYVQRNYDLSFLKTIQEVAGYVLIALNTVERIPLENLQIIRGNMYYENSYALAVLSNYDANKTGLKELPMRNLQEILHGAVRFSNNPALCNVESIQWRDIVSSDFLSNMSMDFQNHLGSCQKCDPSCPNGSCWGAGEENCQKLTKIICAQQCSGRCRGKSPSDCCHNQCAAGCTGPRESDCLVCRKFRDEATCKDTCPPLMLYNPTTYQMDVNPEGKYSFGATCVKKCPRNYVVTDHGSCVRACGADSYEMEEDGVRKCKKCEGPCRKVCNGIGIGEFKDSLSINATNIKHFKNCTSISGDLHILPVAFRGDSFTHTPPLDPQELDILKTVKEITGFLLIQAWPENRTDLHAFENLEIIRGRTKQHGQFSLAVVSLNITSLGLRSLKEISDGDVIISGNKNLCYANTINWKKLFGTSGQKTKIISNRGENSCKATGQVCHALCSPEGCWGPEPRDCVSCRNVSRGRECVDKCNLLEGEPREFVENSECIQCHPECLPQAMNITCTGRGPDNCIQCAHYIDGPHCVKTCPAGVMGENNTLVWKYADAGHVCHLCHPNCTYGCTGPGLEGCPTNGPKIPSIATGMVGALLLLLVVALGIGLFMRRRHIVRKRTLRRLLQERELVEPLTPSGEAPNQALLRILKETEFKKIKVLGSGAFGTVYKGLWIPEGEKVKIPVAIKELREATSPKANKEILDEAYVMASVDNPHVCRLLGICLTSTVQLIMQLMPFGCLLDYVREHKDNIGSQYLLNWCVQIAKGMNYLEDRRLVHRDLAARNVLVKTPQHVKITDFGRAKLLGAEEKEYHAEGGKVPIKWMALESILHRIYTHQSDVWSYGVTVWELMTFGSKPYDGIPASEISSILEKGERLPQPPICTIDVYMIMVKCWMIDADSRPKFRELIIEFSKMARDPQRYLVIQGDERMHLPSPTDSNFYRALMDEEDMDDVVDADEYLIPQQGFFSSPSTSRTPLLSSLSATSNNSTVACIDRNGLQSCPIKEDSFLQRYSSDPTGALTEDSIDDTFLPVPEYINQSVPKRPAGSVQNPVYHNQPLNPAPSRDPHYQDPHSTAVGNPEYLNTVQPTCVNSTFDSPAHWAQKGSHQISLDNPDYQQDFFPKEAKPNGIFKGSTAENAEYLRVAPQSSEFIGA
T5 sequence (P42684 whole entry): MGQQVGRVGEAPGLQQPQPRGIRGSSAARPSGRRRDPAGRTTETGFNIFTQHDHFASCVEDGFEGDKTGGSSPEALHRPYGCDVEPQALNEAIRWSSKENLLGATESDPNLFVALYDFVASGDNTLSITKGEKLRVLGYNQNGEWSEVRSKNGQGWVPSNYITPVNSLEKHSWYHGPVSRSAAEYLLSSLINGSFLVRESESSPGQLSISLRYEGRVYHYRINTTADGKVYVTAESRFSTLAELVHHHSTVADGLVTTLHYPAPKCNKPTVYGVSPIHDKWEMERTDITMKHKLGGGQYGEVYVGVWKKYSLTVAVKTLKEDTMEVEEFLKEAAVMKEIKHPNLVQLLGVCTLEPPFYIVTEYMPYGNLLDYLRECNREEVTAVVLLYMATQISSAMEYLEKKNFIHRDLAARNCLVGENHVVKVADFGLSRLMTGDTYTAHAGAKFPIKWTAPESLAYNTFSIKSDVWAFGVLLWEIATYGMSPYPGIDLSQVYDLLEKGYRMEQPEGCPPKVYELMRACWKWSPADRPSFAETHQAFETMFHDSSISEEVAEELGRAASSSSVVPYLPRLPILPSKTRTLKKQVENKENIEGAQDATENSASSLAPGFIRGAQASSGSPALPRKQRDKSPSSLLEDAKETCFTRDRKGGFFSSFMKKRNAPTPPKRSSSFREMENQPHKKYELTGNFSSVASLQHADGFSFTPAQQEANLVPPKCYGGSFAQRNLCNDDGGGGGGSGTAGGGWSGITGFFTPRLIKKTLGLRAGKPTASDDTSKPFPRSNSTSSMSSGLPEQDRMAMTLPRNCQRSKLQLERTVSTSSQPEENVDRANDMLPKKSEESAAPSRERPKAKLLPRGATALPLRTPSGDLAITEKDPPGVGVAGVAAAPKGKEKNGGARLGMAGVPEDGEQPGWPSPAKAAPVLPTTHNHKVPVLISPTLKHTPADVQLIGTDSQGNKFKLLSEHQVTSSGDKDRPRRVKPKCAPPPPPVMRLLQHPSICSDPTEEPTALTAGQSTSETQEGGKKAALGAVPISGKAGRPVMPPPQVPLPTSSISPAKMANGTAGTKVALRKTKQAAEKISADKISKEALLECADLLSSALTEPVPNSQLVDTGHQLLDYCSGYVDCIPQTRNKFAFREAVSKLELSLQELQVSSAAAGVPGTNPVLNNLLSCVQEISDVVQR
T8 sequence (Q9H0K1 whole entry): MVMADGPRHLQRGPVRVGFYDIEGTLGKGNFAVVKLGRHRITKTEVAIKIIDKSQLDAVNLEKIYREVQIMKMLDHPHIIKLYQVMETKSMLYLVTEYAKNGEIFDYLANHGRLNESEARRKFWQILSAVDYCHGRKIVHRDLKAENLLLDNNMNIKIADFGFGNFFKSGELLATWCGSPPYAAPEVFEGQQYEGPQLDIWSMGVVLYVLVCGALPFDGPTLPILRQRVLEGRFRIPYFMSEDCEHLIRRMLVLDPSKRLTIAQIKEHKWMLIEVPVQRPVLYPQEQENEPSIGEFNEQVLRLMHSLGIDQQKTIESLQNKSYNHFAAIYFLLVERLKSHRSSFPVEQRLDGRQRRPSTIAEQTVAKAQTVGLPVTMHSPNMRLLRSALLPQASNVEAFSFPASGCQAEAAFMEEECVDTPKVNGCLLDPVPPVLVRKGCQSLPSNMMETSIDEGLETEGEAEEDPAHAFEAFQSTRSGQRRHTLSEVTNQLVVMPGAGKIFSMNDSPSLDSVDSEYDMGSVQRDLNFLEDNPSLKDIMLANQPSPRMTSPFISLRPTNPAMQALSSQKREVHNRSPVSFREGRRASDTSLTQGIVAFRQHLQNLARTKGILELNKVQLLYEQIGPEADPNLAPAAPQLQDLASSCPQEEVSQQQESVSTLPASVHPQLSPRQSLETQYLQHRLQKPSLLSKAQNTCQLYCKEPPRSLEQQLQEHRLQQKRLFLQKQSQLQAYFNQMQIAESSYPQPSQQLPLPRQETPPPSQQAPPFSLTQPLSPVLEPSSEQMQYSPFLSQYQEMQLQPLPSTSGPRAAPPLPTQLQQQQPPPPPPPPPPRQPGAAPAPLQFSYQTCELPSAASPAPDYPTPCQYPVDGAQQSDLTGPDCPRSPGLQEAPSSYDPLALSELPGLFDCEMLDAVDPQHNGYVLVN
T3 sequence (P11362 22-822): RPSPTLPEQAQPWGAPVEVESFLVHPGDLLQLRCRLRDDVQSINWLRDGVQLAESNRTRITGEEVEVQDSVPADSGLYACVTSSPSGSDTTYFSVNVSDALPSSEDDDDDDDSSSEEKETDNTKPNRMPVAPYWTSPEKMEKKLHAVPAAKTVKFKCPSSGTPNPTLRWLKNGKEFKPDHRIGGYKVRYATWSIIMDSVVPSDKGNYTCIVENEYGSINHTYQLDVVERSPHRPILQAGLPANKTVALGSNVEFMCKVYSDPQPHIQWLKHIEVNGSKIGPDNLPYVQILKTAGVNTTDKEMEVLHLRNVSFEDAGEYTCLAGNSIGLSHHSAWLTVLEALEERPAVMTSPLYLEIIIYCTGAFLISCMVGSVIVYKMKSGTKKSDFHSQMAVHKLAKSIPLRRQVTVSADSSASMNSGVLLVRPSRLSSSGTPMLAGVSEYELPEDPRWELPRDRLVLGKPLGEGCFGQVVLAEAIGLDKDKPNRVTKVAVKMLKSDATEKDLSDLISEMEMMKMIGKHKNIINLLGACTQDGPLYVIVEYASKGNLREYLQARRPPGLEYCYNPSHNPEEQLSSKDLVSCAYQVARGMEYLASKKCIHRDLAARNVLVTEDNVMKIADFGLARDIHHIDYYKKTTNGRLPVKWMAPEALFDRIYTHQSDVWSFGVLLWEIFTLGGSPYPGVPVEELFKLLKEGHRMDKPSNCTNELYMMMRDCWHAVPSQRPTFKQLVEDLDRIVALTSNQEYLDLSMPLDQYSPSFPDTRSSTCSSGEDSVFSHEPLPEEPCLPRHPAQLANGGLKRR

Row | SMILES | inhibition at 1 µM (PLK1) | inhibition at 10 µM (PLK1) | inhibition at 1 µM (MET M1250T) | inhibition at 10 µM (MET M1250T) | inhibition at 1 µM (FGFR1) | inhibition at 10 µM (FGFR1) | inhibition at 1 µM (AURKB (Aurora B)) | inhibition at 10 µM (AURKB (Aurora B)) | inhibition at 1 µM (ABL2 (Arg)) | inhibition at 10 µM (ABL2 (Arg)) | inhibition at 1 µM (CHEK1 (CHK1)) | inhibition at 10 µM (CHEK1 (CHK1)) | inhibition at 1 µM (CDK1/cyclin B) | inhibition at 10 µM (CDK1/cyclin B) | inhibition at 1 µM (SNF1LK2) | inhibition at 10 µM (SNF1LK2) | inhibition at 1 µM (MAPK7 (ERK5)) | inhibition at 10 µM (MAPK7 (ERK5)) | inhibition at 1 µM (PDGFRA (PDGFR alpha)) | inhibition at 10 µM (PDGFRA (PDGFR alpha)) | further results
1 | COc1ccc2cc3c(N)nn(C(=O)c4cccc(N(C)C)c4)c3nc2c1 [MW05, (3-Amino-7-methoxypyrazolo[3,4-b]quinolin-1-yl)-[3-(dimethylamino)phenyl]methanone] | 6% | 6% | 1% | -15% | -1% | -7% | 8% | -6% | 5% | 2% | 16% | 27% | 19% | 57% | 4% | -2% | 2% | -7% | 7% | 6% | inhibition at 1 µM (HCK): 10%; inhibition at 10 µM (HCK): 9%; inhibition at 1 µM (EGFR (ErbB1) T790M L858R): -5%; inhibition at 10 µM (EGFR (ErbB1) T790M L858R): 10%; inhibition at 1 µM (NTRK3 (TRKC)): 10%; inhibition at 10 µM (NTRK3 (TRKC)): 11%; inhibition at 1 µM (CDC42 BPB (MRCKB)): 5%; inhibition at 10 µM (CDC42 BPB (MRCKB)): -6%
2 | COc1ccc2c(c1OC)c(=O)n1c3ccc(O)cc3c3ccnc2c31 [MW01, 5-Hydroxy-10,11-dimethoxy-9H-benzo[c]indolo[3,2,1-ij][1,5]naphthyridin-9-one] | 5% | 3% | 19% | 42% | 6% | 5% | 15% | 19% | 9% | 21% | 4% | 13% | 20% | 46% | 5% | 12% | 9% | 1% | 20% | 47% | inhibition at 1 µM (HCK): 13%; inhibition at 10 µM (HCK): 22%; inhibition at 1 µM (EGFR (ErbB1) T790M L858R): 9%; inhibition at 10 µM (EGFR (ErbB1) T790M L858R): 29%; inhibition at 1 µM (NTRK3 (TRKC)): 42%; inhibition at 10 µM (NTRK3 (TRKC)): 66%; inhibition at 1 µM (CDC42 BPB (MRCKB)): 0%; inhibition at 10 µM (CDC42 BPB (MRCKB)): 5%
